Source: US20250019367A1, “Methods for Separation of Enantiomers” (Mirati Therapeutics, Inc., priority 2021, published 2025)

Test: Solid form stability versus water activity
Assay type: physicochemical
Settings: IPA-water mixtures, water activity αw
Excerpt: In certain such embodiments, the reacting step (c) occurs in an iso-propyl alcohol (IPA, i-PrOH) solution, or isopropyl alcohol and water solution. […] mixtures of IPA-water (e.g. 90/10 v/v) are preferred to maximize recovery and control API form. […] In certain embodiments, the step (c) solution is optionally seeded with M-enantiomer free base Compound 2.

water activity at which the form is the most stable: ≥ 0.13
Structure (SMILES): Cn1ncc(-c2ccc3c(=O)[nH]nc(CN)c3c2)c1-c1c(F)c(Cl)cc(OC2CC2)c1C#N [Free Base Type A, (2M)-2-(4-(4-(aminomethyl)-1-oxo-1,2-dihydrophthalazin-6-yl)-1-methyl-1H-pyrazol-5-yl)-4-chloro-6-cyclopropoxy-3-fluorobenzonitrile]
